This is an account of results in patent US9511073B2, “Aromatic amides and uses thereof” (TAXIS Pharmaceuticals, Inc., priority 2011, dated 2016).

The nature of data set [1]: Pharmacokinetic assay: plasma concentration by LC/MS/MS after single intravenous or peroral dose of 3 mg/kg. The format is in vivo. The settings on record: 3 mg/kg IV dosing in mice. On the procedure: The pharmacokinetic profiles of selected comparator compounds A-N in Table 6 and compounds of the invention were determined by measuring the compound concentration in plasma by LC/MS/MS following a single intravenous or peroral administration of the compounds at a dose of 3 mg/kg. The concentrations described are the mean plasma concentrations at each time point from three animals. Intravenous dose formulation was administered as a single bolus dose through the tail vein. Oral dose formulation was administered to animals by an oral gavage needle. In both cases the dose volume was 5.0 mL/kg. Blood was collected from anesthetized mice through a capillary guided into the retro-orbital plexus. The collected blood was centrifuged to obtain plasma and the compounds extracted into methanol prior to determining the compound concentration by LC/MS/MS. The results are shown graphically in FIG. 1 and for the AUC and CL parameters in Table 6.

Data set [2] concerns Staphylococcus aureus (Isolate ID ATCC 29213). Kind of data set: Bacterial assay: MIC by broth microdilution or agar dilution (CLSI), S. aureus ATCC 29213. The format is cell-based. The settings on record: Staphylococcus aureus. A digest of the protocol:
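MICs by CLSI broth microdilution or agar dilution against S. aureus ATCC 29213 and its FtsZ-G196A mutant. Values reported as ranges: A ≤0.25 μg/mL, B >0.25–1.0, C >1.0–16, D >16 μg/mL.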

For data set [3], the system named is FtsZ-G196A Staphylococcus aureus (Isolate ID GG/190723/sa/1.2). Kind of data set: Bacterial assay: MIC, FtsZ G196A mutant strain. The format is cell-based. Here is the method:
Compounds are tested for antimicrobial activity by susceptibility testing in liquid or on solid media. Minimum inhibitory concentrations (MICs) for compounds against each strain are determined by the broth microdilution or agar dilution method according to the guidelines of the Clinical Laboratories and Standards Institute, formerly the National Committee for Clinical Laboratory Standards (Clinical Laboratories and Standards Institute. Methods for Dilution Antimicrobial Susceptibility Tests for Bacteria That Grow Aerobically; Approved Standard—Seventh Edition. Document M7-A7. CLSI, Wayne, Pa., 2006; Clinical Laboratories and Standards Institute). The bacterial strains tested include S. aureus (Staphylococcus aureus (Isolate ID ATCC 29213)) and an FtsZ mutant of this isolate (FtsZ-G196A Staphylococcus aureus (Isolate ID GG/190723/sa/1.2)). Compound MICs were determined to be in the following activity ranges “A” activity≦0.25 μg/mL; “B” activity>0.25 μg/mL-1.0 μg/mL; “C” activity>1.0 μg/mL-16 μg/mL; “D” activity>16 μg/mL and ND=not determined. The bracketed entries indicate entantiomer(s) and their activity.
The comparative activity of selected compounds having a bromo-substituted oxazole against their corresponding non-brominated analogues is shown in Table 4.

[4] abbreviates: ATCC29213, read-out: MIC (μg/mL) S. aureus (ATCC29213), Table 5, racemate and enantiomers.
The mark [5] stands for this setting: ATCC29213, read-out: S. aureus MIC (μg/mL) Activity Range, S. aureus (ATCC29213).
Where [6] appears, read: read-out: MIC (μg/mL) G196A mutant strain.
[7] abbreviates: read-out: MIC (μg/mL) FtsZ G196A mutant strain.

Converted amounts (≈) assume the structure as drawn. Read-outs that look alike come from different tables or passages of the source.

As to `CCc1oc(COc2ccc(F)c(C(N)=O)c2F)nc1-c1ccc(OC)cc1` [I, 3-((5-ethyl-4-(4-methoxyphenyl)oxazol-2-yl)methoxy)-2,6-difluorobenzamide], in data set [1], the area under the curve (AUC) turned out to be 200 ng·h/mL and the “CL” value came out at 319 mL/min/kg.

With `COc1ccc(-c2nc([C@H](C)Oc3ccc(F)c(C(N)=O)c3F)oc2Br)cc1` [Compound 5A], the MIC is 16 µg/mL (≈ 35.3 µM) in data set [2] (setting [4]), 1 to 16 µg/mL (≈ 2.21 to 35.3 µM) in data set [2] (setting [5]) and above 256 µg/mL in data set [3] (setting [6]).

`NC(=O)c1c(F)ccc(OCc2nc(-c3ccc(Cl)cc3)no2)c1F` [Compound A, 3-((3-(4-chlorophenyl)-1,2,4-oxadiazol-5-yl)methoxy)-2,6-difluorobenzamide] yielded a clearance in data set [1] (mouse, plasma) of 52 mL/min/kg. Also, the AUC in data set [1] (mouse, plasma, read-out: AUC) was 900 ng·h/mL.

Molecule `COc1ccc(-c2nc(COc3ccc(F)c(C(N)=O)c3F)sc2-c2ccc(N(C)C)nc2)cc1` [D, 3-((5-(6-(dimethylamino)pyridin-3-yl)-4-(4-methoxyphenyl)thiazol-2-yl)methoxy)-2,6-difluorobenzamide] gave a clearance in data set [1] (mouse, plasma) of 55 mL/min/kg. The exposure (AUC) in data set [1] (mouse, plasma, read-out: AUC) was 900 ng·h/mL.

Turning to `CCCc1oc(COc2ccc(F)c(C(N)=O)c2F)nc1-c1ccc(Cl)cc1` [K], in data set [1], the exposure (AUC) amounted to 400 ng·h/mL and the “CL” value is given as 137 mL/min/kg.

As for `NC(=O)c1c(F)ccc(O[C@@H](CO)c2nc(-c3ccc(F)cc3F)c(Br)o2)c1F` [Compound 233A, (S)-3-(1-(5-bromo-4-(2,4-difluorophenyl)oxazol-2-yl)-2-hydroxyethoxy)-2,6-difluorobenzamide], the MIC was 32 µg/mL (≈ 67.3 µM) in data set [2] (setting [4]), above 16 µg/mL in data set [2] (setting [5]) and above 256 µg/mL in data set [3] (setting [6]).

As to `C=CCc1oc(COc2ccc(F)c(C(N)=O)c2F)nc1-c1cccc(O)c1` [Compound N, 3-((5-allyl-4-(3-hydroxyphenyl)oxazol-2-yl)methoxy)-2,6-difluorobenzamide], the clearance in data set [1] (mouse, plasma) is 270 mL/min/kg. Besides, in data set [1] (mouse, plasma, read-out: AUC), the AUC is 200 ng·h/mL.

On to `NC(=O)c1c(F)ccc(O[C@H](COC(=O)CCC(=O)O)c2nc(-c3ccc(C(F)(F)F)cc3)c(Br)o2)c1F` [Compound 181, (R)-4-(2-(5-bromo-4-(4-(trifluoromethyl)phenyl)oxazol-2-yl)-2-(3-carbamoyl-2,4-difluorophenoxy)ethoxy)-4-oxobutanoic acid], for which the MIC in data set [2] (setting [5]) fell in the range of 1 to 16 µg/mL (≈ 1.65 to 26.3 µM). In data set [1] (mouse, plasma), this molecule showed a clearance of 16 mL/min/kg. Also, the AUC in data set [1] (mouse, plasma, read-out: AUC) stood at 3000 ng·h/mL.

As for `COc1ccc(-c2nc([C@@H](C)Oc3ccc(F)c(C(N)=O)c3F)oc2Br)cc1` [Compound 5B], the MIC in data set [2] (setting [4]) is 0.5 µg/mL (≈ 1.1 µM); in data set [2] (setting [5]), 0.25 to 1 µg/mL (≈ 0.552 to 2.21 µM); in data set [3] (setting [7]), 16 µg/mL (≈ 35.3 µM); in data set [3] (setting [6]) it was 16 µg/mL (≈ 35.3 µM).

As to `NC(=O)c1c(F)ccc(OCc2nc(-c3ccc(Cl)nc3)cs2)c1F` [Compound F, 3-((4-(6-chloropyridin-3-yl)thiazol-2-yl)methoxy)-2,6-difluorobenzamide], the clearance in data set [1] (mouse, plasma) was found to be 139 mL/min/kg. For the same molecule, in data set [1] (mouse, plasma, read-out: AUC), the AUC is 400 ng·h/mL.

As for `COC(=O)NCC(Oc1ccc(F)c(C(N)=O)c1F)c1nc(-c2ccc(C(F)(F)F)cc2)c(Br)o1` (centres unmarked) [Compound 288, methyl (2-(5-bromo-4-(4-(trifluoromethyl)phenyl)oxazol-2-yl)-2-(3-carbamoyl-2,4-difluorophenoxy)ethyl)carbamate], the MIC was 0.25 to 1 µg/mL (≈ 0.443 to 1.77 µM) in data set [2] (setting [5]) and 16 µg/mL (≈ 28.4 µM) in data set [3] (setting [7]).

`CCCc1oc(COc2ccc(F)c(C(N)=O)c2F)nc1-c1cccc(O)c1` [Compound M, 2,6-difluoro-3-((4-(3-hydroxyphenyl)-5-propyloxazol-2-yl)methoxy)benzamide] had a clearance in data set [1] (mouse, plasma) of 369 mL/min/kg. In data set [1] (mouse, plasma, read-out: AUC), the AUC is 100 ng·h/mL.

As for `C[C@@H](Oc1ccc(F)c(C(N)=O)c1F)c1nc(-c2ccc(C(F)(F)F)cc2)co1` [Compound 183, (R)-2,6-difluoro-3-(1-(4-(4-(trifluoromethyl)phenyl)oxazol-2-yl)ethoxy)benzamide], the MIC in data set [2] (setting [5]) is 1 to 16 µg/mL (≈ 2.43 to 38.8 µM); in data set [3] (setting [7]), above 256 µg/mL.

As to `CC(Oc1ccc(F)c(C(N)=O)c1F)c1nc(-c2ccc(OC(F)(F)F)cc2)c(Cl)o1` (centres unmarked) [Compound 21, 3-(1-(5-chloro-4-(4-(trifluoromethoxy)phenyl)oxazol-2-yl)ethoxy)-2,6-difluorobenzamide], the MIC in data set [2] (setting [5]) was below 0.25 µg/mL. Besides, in data set [1], the exposure (AUC) is 1600 ng·h/mL and the “CL” value was found to be 31 mL/min/kg.

`NC(=O)c1c(F)ccc(O[C@H](CO)c2nc(-c3ccc(F)cc3F)c(Br)o2)c1F` [Compound 233B, (R)-3-(1-(5-bromo-4-(2,4-difluorophenyl)oxazol-2-yl)-2-hydroxyethoxy)-2,6-difluorobenzamide]: the MIC in data set [2] (setting [4]) is 0.25 µg/mL (≈ 0.526 µM); in data set [2] (setting [5]), below 0.25 µg/mL; in data set [3] (setting [6]) it was 8 µg/mL (≈ 16.8 µM).

For the molecule `COC(=O)NCC(Oc1ccc(F)c(C(N)=O)c1F)c1nc(-c2ccc(C(F)(F)F)cc2)co1` (centres unmarked) [Compound 287, methyl (2-(3-carbamoyl-2,4-difluorophenoxy)-2-(4-(4-(trifluoromethyl)phenyl)oxazol-2-yl)ethyl)carbamate], the figures for the MIC in data set [2] (setting [5]) and in data set [3] (setting [7]) were above 16 µg/mL and above 256 µg/mL, respectively.

Consider `CCOc1cnc2sc(COc3ccc(F)c(C(N)=O)c3F)nc2c1` [E], for which, in data set [1], the “AUC” value was determined as 200 ng·h/mL and the “CL” value was 203 mL/min/kg.

Take `NC(=O)c1c(F)ccc(OCc2nc3cc(-c4ccccc4)cnc3s2)c1F` [B]: in data set [1], the exposure (AUC) is 500 ng·h/mL and the “CL” value was 91 mL/min/kg.

In the case of `CC(Oc1ccc(F)c(C(N)=O)c1F)c1nc(-c2ccc(C(F)(F)F)cc2)c(Br)o1` (centres unmarked) [Compound 27, 3-(1-(5-bromo-4-(4-(trifluoromethyl)phenyl)oxazol-2-yl)ethoxy)-2,6-difluorobenzamide], the MIC in data set [2] (setting [5]) is below 0.25 µg/mL. In addition, in data set [1], the “AUC” value is 2200 ng·h/mL and the “CL” value was found to be 22 mL/min/kg.

For `COc1ncc(-c2csc(COc3ccc(F)c(C(N)=O)c3F)n2)s1` [J, 2,6-difluoro-3-((2′-methoxy-4,5′-bithiazol-2-yl)methoxy)benzamide], in data set [1] (mouse, plasma), the clearance was found to be 180 mL/min/kg. For the same molecule, the exposure (AUC) in data set [1] (mouse, plasma, read-out: AUC) is 300 ng·h/mL.

In the case of `COc1ccc(-c2coc([C@@H](C)Oc3ccc(F)c(C(N)=O)c3F)n2)cc1` [Compound 268B], the MIC in data set [2] (setting [5]) was 1 to 16 µg/mL (≈ 2.67 to 42.7 µM); in data set [3] (setting [7]), above 256 µg/mL.

Take `NC(=O)c1c(F)ccc(OCc2nc(-c3cnc(Cl)nc3)cs2)c1F` [H, 3-((4-(2-chloropyrimidin-5-yl)thiazol-2-yl)methoxy)-2,6-difluorobenzamide]: the clearance in data set [1] (mouse, plasma) amounted to 173 mL/min/kg. The AUC in data set [1] (mouse, plasma, read-out: AUC) was 300 ng·h/mL.

For the molecule `Cc1noc(CCc2csc(COc3ccc(F)c(C(N)=O)c3F)n2)n1` [L, 2,6-difluoro-3-((4-(2-(3-methyl-1,2,4-oxadiazol-5-yl)ethyl)thiazol-2-yl)methoxy)benzamide], the clearance in data set [1] (mouse, plasma) was found to be 59 mL/min/kg. In data set [1] (mouse, plasma, read-out: AUC), the AUC stood at 800 ng·h/mL.

Take `NC(=O)c1c(F)ccc(OC(CNC(=O)c2ccccc2)c2nc(-c3ccc(C(F)(F)F)cc3)co2)c1F` (centres unmarked) [Compound 289, 3-(2-benzamido-1-(4-(4-(trifluoromethyl)phenyl)oxazol-2-yl)ethoxy)-2,6-difluorobenzamide]: the results for the MIC in data set [2] (setting [5]) and in data set [3] (setting [7]) were 1 to 16 µg/mL (≈ 1.88 to 30.1 µM) and above 256 µg/mL, respectively.

On to `C[C@@H](Oc1ccc(F)c(C(N)=O)c1F)c1nc(-c2ccc(C(F)(F)F)cc2)c(Br)o1` [Compound 184, (R)-3-(1-(5-bromo-4-(4-(trifluoromethyl)phenyl)oxazol-2-yl)ethoxy)-2,6-difluorobenzamide], for which the MIC is below 0.25 µg/mL in data set [2] (setting [5]) and 0.5 µg/mL (≈ 1.02 µM) in data set [3] (setting [7]).

Take `Cc1ccc(-c2csc(COc3ccc(F)c(C(N)=O)c3F)n2)cn1` [Compound C, 2,6-difluoro-3-((4-(6-methylpyridin-3-yl)thiazol-2-yl)methoxy)benzamide]: in data set [1] (mouse, plasma), the clearance amounted to 130 mL/min/kg. Further, the AUC in data set [1] (mouse, plasma, read-out: AUC) turned out to be 400 ng·h/mL.

In the case of `CC(Oc1ccc(F)c(C(N)=O)c1F)c1nc(-c2ccc(OC(F)(F)F)cc2)c(Br)o1` (centres unmarked) [Compound 16, 3-(1-(5-bromo-4-(4-(trifluoromethoxy)phenyl)oxazol-2-yl)ethoxy)-2,6-difluorobenzamide], the MIC in data set [2] (setting [5]) fell in the range of 0.25 to 1 µg/mL (≈ 0.493 to 1.97 µM). Besides, in data set [1], the “AUC” value amounted to 1400 ng·h/mL and the “CL” value turned out to be 36 mL/min/kg.

Molecule `COc1cnc(-c2csc(COc3ccc(F)c(C(N)=O)c3F)n2)cn1` [G, 2,6-difluoro-3-((4-(5-methoxypyrazin-2-yl)thiazol-2-yl)methoxy)benzamide] came in with a clearance in data set [1] (mouse, plasma) of 82 mL/min/kg. Moreover, the AUC in data set [1] (mouse, plasma, read-out: AUC) came to 600 ng·h/mL.

Usually AUC stands for concentration integrated over time.
